Results reported in patent US12606541B2, “PPARg modulators and methods of use” (Eisai R&D Management Co., Ltd., priority 2020, dated 2026).

Each compound was assayed against T1, His6-TEV-PPARγ-(234-505) (Homo sapiens, UniProt P37231) (assay: TR-FRET Assay to Measure Co-R Peptide Recruitment to PPARγ). Conditions: Co-R peptide (SMRT-ID2) recruitment; top final concentration 20 μM; read-out: TR-FRET i-Ag; AC50.
T1 construct: The His6-TEV-PPARγ-(234-505) protein for assay was expressed and purified; TEV cleavage site (N); made in house
T1 sequence (P37231 234-505): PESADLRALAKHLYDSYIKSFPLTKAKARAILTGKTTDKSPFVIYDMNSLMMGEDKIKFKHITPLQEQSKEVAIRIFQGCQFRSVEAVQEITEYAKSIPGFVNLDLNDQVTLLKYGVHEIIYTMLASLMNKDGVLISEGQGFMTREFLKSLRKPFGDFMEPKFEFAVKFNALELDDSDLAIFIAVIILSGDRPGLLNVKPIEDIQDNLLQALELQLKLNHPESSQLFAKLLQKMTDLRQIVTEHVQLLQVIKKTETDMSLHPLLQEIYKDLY
Format: biochemical
Outline: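 Corepressor recruitment is measured by adding terbium-labeled anti-His antibody and FITC SMRT-ID2 peptide, at 5 and 200 nM final, after a 20-minute room-temperature protein–compound incubation. After one further hour, signal is converted to percent response between DMSO and 500 nM T0070907 wells.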

Row | SMILES | AC50
1 | COc1cc(-c2cc(C(=O)N3CCC(C(=O)N[C@H]4CC[C@@H](C)CC4)CC3)n[nH]2)ccn1 [Example 107, 1-(5-(2-methoxypyridin-4-yl)-1H-pyrazole-3-carbonyl)-N-((1s,4s)-4-methylcyclohexyl)piperidine-4-carboxamide] | 0.342 µM

Same assay, conditions: Co-R peptide recruitment to PPARγ; read-out: TR-FRET AC50

Row | SMILES | AC50
2 | COc1cc(-c2cc(C(=O)N3CCC4(C(=O)NCc5cccc(Cl)c5)CC4C3)n[nH]2)c(Cl)cn1 (centres unmarked) [3-[5-(5-chloro-2-methoxypyridin-4-yl)-1H-pyrazole-3-carbonyl]-N-[(3-chlorophenyl)methyl]-3-azabicyclo[4.1.0]heptane-6-carboxamide] | > 1 µM
3 | O=C(c1cc(-c2ccncc2)[nH]n1)N1CCC(C(=O)N2CCOCC2)CC1 [4-{1-[5-(pyridin-4-yl)-1H-pyrazole-3-carbonyl]piperidine-4-carbonyl}morpholine] | > 1 µM
4 | CC1CCN(C(=O)C2CCN(C(=O)c3cc(-c4ccncc4)[nH]n3)CC2)CC1 [4-{3-[4-(4-methylpiperidine-1-carbonyl)piperidine-1-carbonyl]-1H-pyrazol-5-yl}pyridine] | > 1 µM
5 | O=C(c1cc(-c2ccncc2)[nH]n1)N1CCC(C(=O)N2CCC(c3ccccc3)CC2)CC1 [4-{3-[4-(4-phenylpiperidine-1-carbonyl)piperidine-1-carbonyl]-1H-pyrazol-5-yl}pyridine] | > 1 µM
6 | O=C(c1cc(-c2ccncc2)[nH]n1)N1CCC(C(=O)N2CCCCC2)CC1 [4-{3-[4-(piperidine-1-carbonyl)piperidine-1-carbonyl]-1H-pyrazol-5-yl}pyridine] | > 1 µM
7 | COc1cc(-c2cc(C(=O)N3CC4COCC(C3)C4C(=O)NCc3cccc(Cl)c3)n[nH]2)c(Cl)cn1 (centres unmarked) [7-[5-(5-chloro-2-methoxypyridin-4-yl)-1H-pyrazole-3-carbonyl]-N-[(3-chlorophenyl)methyl]-3-oxa-7-azabicyclo[3.3.1]nonane-9-carboxamide] | > 1 µM
8 | O=C(c1cc(-c2ccncc2)[nH]n1)N1CCC(C(=O)N2CC[C@@H](O)C2)CC1 [(3R)-1-{1-[5-(pyridin-4-yl)-1H-pyrazole-3-carbonyl]piperidine-4-carbonyl}pyrrolidin-3-ol] | > 1 µM
9 | CN(C)[C@@H]1CCN(C(=O)C2CCN(C(=O)c3cc(-c4ccncc4)[nH]n3)CC2)C1 [(3R)—N,N-dimethyl-1-{1-[5-(pyridin-4-yl)-1H-pyrazole-3-carbonyl]piperidine-4-carbonyl}pyrrolidin-3-amine] | > 1 µM
10 | COc1cc(-c2cc(C(=O)N3CCC[C@@H](C(=O)NCc4cccc(Cl)c4)C3)n[nH]2)c(F)cn1 [(3R)—N-[(3-chlorophenyl)methyl]-1-[5-(5-fluoro-2-methoxypyridin-4-yl)-1H-pyrazole-3-carbonyl]piperidine-3-carboxamide] | > 1 µM
11 | CN(C)[C@H]1CCN(C(=O)C2CCN(C(=O)c3cc(-c4ccncc4)[nH]n3)CC2)C1 [(3S)—N,N-dimethyl-1-{1-[5-(pyridin-4-yl)-1H-pyrazole-3-carbonyl]piperidine-4-carbonyl}pyrrolidin-3-amine] | > 1 µM
12 | COc1cc(-c2cc(C(=O)N3CCC[C@H](C(=O)NCc4cccc(Cl)c4)C3)n[nH]2)c(F)cn1 [(3S)—N-[(3-chlorophenyl)methyl]-1-[5-(5-fluoro-2-methoxypyridin-4-yl)-1H-pyrazole-3-carbonyl]piperidine-3-carboxamide] | > 1 µM
13 | COc1cc(-c2cc(C(=O)N3CC[C@@H](C(=O)NC4CCS(=N)(=O)CC4)CC34CC4)n[nH]2)c(F)cn1 (stereo partly drawn) [(7R)-4-[5-(5-fluoro-2-methoxypyridin-4-yl)-1H-pyrazole-3-carbonyl]-N-(1-imino-1-oxo-1λ^6-thian-4-yl)-4-azaspiro[2.5]octane-7-carboxamide] | > 1 µM
14 | COc1cc(-c2cc(C(=O)N3CC[C@H](C(=O)N[C@@H]4CN(c5ccc(C)nc5)C[C@@H]4F)CC34CC4)n[nH]2)c(F)cn1 [(7S)—N-[(3R,4S)-4-fluoro-1-(6-methylpyridin-3-yl)pyrrolidin-3-yl]-4-[5-(5-fluoro-2-methoxypyridin-4-yl)-1H-pyrazole-3-carbonyl]-4-azaspiro[2.5]octane-7-carboxamide] | > 1 µM
15 | O=C(Nc1ncco1)C1CCN(C(=O)c2cc(-c3ccncc3)[nH]n2)CC1 [N-(1,3-oxazol-2-yl)-1-[5-(pyridin-4-yl)-1H-pyrazole-3-carbonyl]piperidine-4-carboxamide] | > 1 µM
16 | COc1cc(-c2cc(C(=O)N3CCC(C(=O)NC4CCN(C(C)=O)C4)CC3)n[nH]2)c(Cl)cn1 (centres unmarked) [N-(1-acetylpyrrolidin-3-yl)-1-[5-(5-chloro-2-methoxypyridin-4-yl)-1H-pyrazole-3-carbonyl]piperidine-4-carboxamide] | > 1 µM
17 | COc1cc(-c2cc(C(=O)N3CCC(C(=O)NC4CCN(Cc5ccccc5)C4)CC3)n[nH]2)c(Cl)cn1 (centres unmarked) [N-(1-benzylpyrrolidin-3-yl)-1-[5-(5-chloro-2-methoxypyridin-4-yl)-1H-pyrazole-3-carbonyl]piperidine-4-carboxamide] | > 1 µM
18 | COc1cc(-c2cc(C(=O)N3CCC(C(=O)NC(C)C4CCC4)CC3)n[nH]2)c(F)cn1 (centres unmarked) [N-(1-cyclobutylethyl)-1-[5-(5-fluoro-2-methoxypyridin-4-yl)-1H-pyrazole-3-carbonyl]piperidine-4-carboxamide] | > 1 µM

Row | SMILES | AC50
19 | CS(=O)(=O)N1CCC(NC(=O)C2CCN(C(=O)c3cc(-c4ccncc4)[nH]n3)CC2)CC1 [N-(1-methanesulfonylpiperidin-4-yl)-1-[5-(pyridin-4-yl)-1H-pyrazole-3-carbonyl]piperidine-4-carboxamide] | > 1 µM
20 | CN1CCC(NC(=O)C2CCN(C(=O)c3cc(-c4ccncc4)[nH]n3)CC2)CC1 [N-(1-methylpiperidin-4-yl)-1-[5-(pyridin-4-yl)-1H-pyrazole-3-carbonyl]piperidine-4-carboxamide] | > 1 µM
21 | O=C(NC1CCCN(c2ccccc2)C1)C1CCN(C(=O)c2cc(-c3ccncc3)[nH]n2)CC1 (centres unmarked) [N-(1-phenylpiperidin-3-yl)-1-[5-(pyridin-4-yl)-1H-pyrazole-3-carbonyl]piperidine-4-carboxamide] | > 1 µM
22 | COc1cc(-c2cc(C(=O)N3CCC(C(=O)NC4CCN(C(C)(C)C)CC4)CC3)n[nH]2)c(Cl)cn1 [N-(1-tert-butylpiperidin-4-yl)-1-[5-(5-chloro-2-methoxypyridin-4-yl)-1H-pyrazole-3-carbonyl]piperidine-4-carboxamide] | > 1 µM
23 | CC(C)(C)CNC(=O)C1CCN(C(=O)c2cc(-c3ccncc3)[nH]n2)CC1 [N-(2,2-dimethylpropyl)-1-[5-(pyridin-4-yl)-1H-pyrazole-3-carbonyl]piperidine-4-carboxamide] | > 1 µM
24 | O=C(Nc1ccc2c(c1)OCCO2)C1CCCN(C(=O)c2cc(-c3ccncc3)[nH]n2)C1 (centres unmarked) [N-(2,3-dihydro-1,4-benzodioxin-6-yl)-1-[5-(pyridin-4-yl)-1H-pyrazole-3-carbonyl]piperidine-3-carboxamide] | > 1 µM
25 | Cc1cccc(C)c1NC(=O)C1CCN(C(=O)c2cc(-c3ccncc3)[nH]n2)CC1 [N-(2,6-dimethylphenyl)-1-[5-(pyridin-4-yl)-1H-pyrazole-3-carbonyl]piperidine-4-carboxamide] | > 1 µM
26 | CN(CCC#N)C(=O)C1CCN(C(=O)c2cc(-c3ccncc3)[nH]n2)CC1 [N-(2-cyanoethyl)-N-methyl-1-[5-(pyridin-4-yl)-1H-pyrazole-3-carbonyl]piperidine-4-carboxamide] | > 1 µM
27 | CCOCCNC(=O)C1CCN(C(=O)c2cc(-c3ccncc3)[nH]n2)CC1 [N-(2-ethoxyethyl)-1-[5-(pyridin-4-yl)-1H-pyrazole-3-carbonyl]piperidine-4-carboxamide] | > 1 µM
28 | CC1CCCCC1NC(=O)C1CCN(C(=O)c2cc(-c3ccncc3)[nH]n2)CC1 (centres unmarked) [N-(2-methylcyclohexyl)-1-[5-(pyridin-4-yl)-1H-pyrazole-3-carbonyl]piperidine-4-carboxamide] | > 1 µM
29 | O=C(NCCc1ccccc1)C1CCN(C(=O)c2cc(-c3ccncc3)[nH]n2)CC1 [N-(2-phenylethyl)-1-[5-(pyridin-4-yl)-1H-pyrazole-3-carbonyl]piperidine-4-carboxamide] | > 1 µM
30 | CC(CNC(=O)C1CCCN(C(=O)c2cc(-c3ccncc3)[nH]n2)C1)c1ccccc1 (centres unmarked) [N-(2-phenylpropyl)-1-[5-(pyridin-4-yl)-1H-pyrazole-3-carbonyl]piperidine-3-carboxamide] | > 1 µM
31 | Cc1ccc(NC(=O)C2CCN(C(=O)c3cc(-c4ccncc4)[nH]n3)CC2)cc1Cl [N-(3-chloro-4-methylphenyl)-1-[5-(pyridin-4-yl)-1H-pyrazole-3-carbonyl]piperidine-4-carboxamide] | > 1 µM
32 | O=C(Nc1cccc(Cl)c1)C1CCN(C(=O)c2cc(-c3ccncc3)[nH]n2)CC1 [N-(3-chlorophenyl)-1-[5-(pyridin-4-yl)-1H-pyrazole-3-carbonyl]piperidine-4-carboxamide] | > 1 µM
33 | CC(C)CCNC(=O)C1CCN(C(=O)c2cc(-c3ccncc3)[nH]n2)CC1 [N-(3-methylbutyl)-1-[5-(pyridin-4-yl)-1H-pyrazole-3-carbonyl]piperidine-4-carboxamide] | > 1 µM
34 | CC1CCCC(NC(=O)C2CCN(C(=O)c3cc(-c4ccncc4)[nH]n3)CC2)C1 (centres unmarked) [N-(3-methylcyclohexyl)-1-[5-(pyridin-4-yl)-1H-pyrazole-3-carbonyl]piperidine-4-carboxamide] | > 1 µM
35 | Cc1cnccc1NC(=O)C1CCN(C(=O)c2cc(-c3ccncc3)[nH]n2)CC1 [N-(3-methylpyridin-4-yl)-1-[5-(pyridin-4-yl)-1H-pyrazole-3-carbonyl]piperidine-4-carboxamide] | > 1 µM
